Results: patent publication US11541050B2, “Pyrimidine derivatives for the treatment of viral infections” (JANSSEN SCIENCES IRELAND UC, priority 2011, dated 2023)

These molecules were tested on human TLR8 mutant sequence comprising a deletion in the second leucine-rich repeat (assay: TLR8 cellular NFκB-luc reporter assay, mutant TLR8 with deletion in the second leucine-rich repeat). Details: lowest effective concentration.
Type: cell-based
Parameters: unit not given here
Procedure: (§1) The ability of compounds to activate human TLR7 and/or TLR8 was assessed in a cellular reporter assay using HEK293 cells transiently transfected with a TLR7 or TLR8 expression vector and NFκB-luc reporter construct. In one instance the TLR expression construct expresses the respective wild type sequence or a mutant sequence comprising a deletion in the second leucine-rich repeat of the TLR.
(§2) Briefly, HEK293 cells were grown in culture medium (DMEM supplemented with 10% FCS and 2 mM Glutamine). For transfection of cells in 10 cm dishes, cells were detached with Trypsin-EDTA, transfected with a mix of CMV-TLR7 or TLR8 plasmid (750 ng), NFκB-luc plasmid (375 ng) and a transfection reagent and incubated for 48 hours at 37° C. in a humidified 5% CO2 atmosphere. […] Thirty microliters of cells were then dispensed into each well in 384-well plates, where 10 μL of compound in 4% DMSO was already present. Following 6 hours incubation at 37° C., 5% CO2, the luciferase activity was determined by adding 15 μl of Steady Lite Plus substrate (Perkin Elmer) to each well and readout performed on a ViewLux ultraHTS microplate imager (Perkin Elmer). Dose response curves were generated from measurements performed in quadruplicates.
With `CCCC[C@@H](CCO)Nc1nc(N)ncc1OCCCc1ccc(OC)cc1` [Compound 225] the TLR8-dIRR2_LEC was 0.129. Work on `CCC[C@@H](CCO)Nc1nc(N)ncc1OCCCc1ccc(OC)cc1` [Compound 226] yielded a TLR8-dIRR2_LEC of 0.036. `CCC[C@@H](CCO)Nc1nc(N)ncc1OCc1cccc(C)n1` [Compound 227] gave a TLR8-dIRR2_LEC of 0.030. Molecule `CCCC[C@@H](CO)Nc1nc(N)ncc1OCCCc1ccc2c(c1)OCO2` [Compound 228] has a TLR8-dIRR2_LEC of 0.112. In the case of `CCCCNc1nc(N)ncc1OCCN(Cc1ccccc1)C(=O)OCC` [Compound 230], the TLR8-dIRR2_LEC is reported as 0.138. `CCC[C@@H](CCO)Nc1nc(N)ncc1OCc1nccc2ccccc12` [Compound 231] was tested, and the TLR8-dIRR2_LEC was less than 0.001. `CCCCNc1nc(N)ncc1OCCNC(=O)OCC` [Compound 232] showed a TLR8-dIRR2_LEC of 0.110. `CCCCNc1nc(N)ncc1OCCOC(C)C` [Compound 234] was tested, and the TLR8-dIRR2_LEC was 0.464. Molecule `CCCCNc1nc(N)ncc1OCC1CCOC1` (stereo not drawn) [Compound 235] has a TLR8-dIRR2_LEC of 1.890. `CCCCNc1nc(N)ncc1OCc1ccc2cccnc2n1` [Compound 236] gave a TLR8-dIRR2_LEC of 0.031. `CCCC[C@@H](CCO)Nc1nc(N)ncc1OCc1cc(C)n(C)n1` [Compound 237] was tested, and the TLR8-dIRR2_LEC was 0.051. `CCC[C@@H](CCO)Nc1nc(N)ncc1OCCCc1ccc2c(c1)OCO2` [Compound 238] gave a TLR8-dIRR2_LEC of 0.091. Molecule `CCC[C@@H](CO)Nc1nc(N)ncc1OCc1ccccn1` [Compound 239] has a TLR8-dIRR2_LEC of 0.145. With `CCCC[C@@H](CCO)Nc1nc(N)ncc1OCc1nn(C)c2ccccc12` [Compound 240] the TLR8-dIRR2_LEC was 0.005. Molecule `CCCC[C@@H](CCO)Nc1nc(N)ncc1OCc1ncccc1OC` [Compound 241] has a TLR8-dIRR2_LEC of 0.004. Work on `CCCC[C@@H](CCO)Nc1nc(N)ncc1OCc1ncc(C)c(O)c1C` [Compound 242] yielded a TLR8-dIRR2_LEC of 0.006. With `CCCC[C@@H](CO)Nc1nc(N)ncc1OCc1ccccn1` [Compound 243] the TLR8-dIRR2_LEC was 0.190. With `CCCC[C@@H](CCO)Nc1nc(N)ncc1OCCCc1ccc2c(c1)OCO2` [Compound 244] the TLR8-dIRR2_LEC was 0.104. For `CCCC[C@@H](CCO)Nc1nc(N)ncc1OCc1nccc(OC)c1OC` [Compound 245], the TLR8-dIRR2_LEC was 0.011. `CCC[C@@H](CCO)Nc1nc(N)ncc1OCc1cc(C)n(C)n1` [Compound 246] was tested, and the TLR8-dIRR2_LEC was 0.048.

What follows are molecules tested against T1, human TLR7 (wild type sequence) (Homo sapiens, UniProt Q9NYK1) (assay: TLR7 cellular NFκB-luc reporter assay, wild type TLR7). Details: lowest effective concentration, wild type TLR7.
T1 construct: expressed in transfected cells; host or cells: HEK293
T1 sequence (Q9NYK1 27-1049): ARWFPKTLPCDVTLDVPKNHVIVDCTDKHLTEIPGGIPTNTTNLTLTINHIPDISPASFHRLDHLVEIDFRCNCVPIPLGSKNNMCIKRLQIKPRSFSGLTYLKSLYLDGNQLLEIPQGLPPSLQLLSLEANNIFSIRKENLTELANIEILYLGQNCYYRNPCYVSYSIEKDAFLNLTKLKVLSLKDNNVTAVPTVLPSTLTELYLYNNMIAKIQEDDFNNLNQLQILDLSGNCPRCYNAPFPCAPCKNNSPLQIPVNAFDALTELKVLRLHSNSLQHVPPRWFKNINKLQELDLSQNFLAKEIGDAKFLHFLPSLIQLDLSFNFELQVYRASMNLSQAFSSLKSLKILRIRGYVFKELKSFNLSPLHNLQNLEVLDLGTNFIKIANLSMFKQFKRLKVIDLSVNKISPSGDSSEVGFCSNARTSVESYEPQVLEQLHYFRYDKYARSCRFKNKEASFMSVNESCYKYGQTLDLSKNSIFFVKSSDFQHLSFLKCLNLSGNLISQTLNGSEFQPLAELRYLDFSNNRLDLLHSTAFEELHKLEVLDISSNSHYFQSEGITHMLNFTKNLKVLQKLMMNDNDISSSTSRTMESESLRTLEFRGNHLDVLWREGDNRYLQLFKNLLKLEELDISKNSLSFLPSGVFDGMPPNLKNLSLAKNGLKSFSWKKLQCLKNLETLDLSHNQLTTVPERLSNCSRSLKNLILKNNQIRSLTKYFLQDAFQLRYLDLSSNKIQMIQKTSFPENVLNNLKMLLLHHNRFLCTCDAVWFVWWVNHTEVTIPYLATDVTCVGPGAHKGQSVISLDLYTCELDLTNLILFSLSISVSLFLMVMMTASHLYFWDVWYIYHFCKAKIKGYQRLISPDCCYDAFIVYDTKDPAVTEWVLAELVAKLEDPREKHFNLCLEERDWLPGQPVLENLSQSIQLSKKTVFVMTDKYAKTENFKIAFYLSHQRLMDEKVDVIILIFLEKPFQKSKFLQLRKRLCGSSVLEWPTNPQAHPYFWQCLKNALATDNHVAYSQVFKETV
Type: cell-based
Parameters: unit not given here
Summary of the method: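 HEK293 cells were transiently transfected for 48 h with a CMV-driven wild-type or LRR2-deletion TLR7 or TLR8 plasmid plus an NFκB-luc reporter. They were then exposed to compound for 6 h at 37 °C and luciferase was read. LEC is the concentration giving an effect at least twofold above the assay SD, from quadruplicate dose-response curves.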
With `CCCC[C@@H](CCO)Nc1nc(N)ncc1OCCCc1ccc(OC)cc1` [Compound 225] the TLR7-wt_LEC was 0.385. In the case of `CCC[C@@H](CCO)Nc1nc(N)ncc1OCCCc1ccc(OC)cc1` [Compound 226], the TLR7-wt_LEC is reported as 0.274. In the case of `CCC[C@@H](CCO)Nc1nc(N)ncc1OCc1cccc(C)n1` [Compound 227], the TLR7-wt_LEC is reported as 0.170. For `CCCC[C@@H](CO)Nc1nc(N)ncc1OCCCc1ccc2c(c1)OCO2` [Compound 228], the TLR7-wt_LEC was 1.410. `CCCCNc1nc(N)ncc1OCCN(Cc1ccccc1)C(=O)OCC` [Compound 230] gave a TLR7-wt_LEC of 0.593. For `CCC[C@@H](CCO)Nc1nc(N)ncc1OCc1nccc2ccccc12` [Compound 231], the TLR7-wt_LEC was 0.001. Work on `CCCCNc1nc(N)ncc1OCCNC(=O)OCC` [Compound 232] yielded a TLR7-wt_LEC of 0.967. `CCCCNc1nc(N)ncc1OCCOC(C)C` [Compound 234] showed a TLR7-wt_LEC of 1.850. `CCCCNc1nc(N)ncc1OCC1CCOC1` (stereo not drawn) [Compound 235] was tested, and the TLR7-wt_LEC was greater than 25. `CCCCNc1nc(N)ncc1OCc1ccc2cccnc2n1` [Compound 236] was tested, and the TLR7-wt_LEC was 0.241. In the case of `CCCC[C@@H](CCO)Nc1nc(N)ncc1OCc1cc(C)n(C)n1` [Compound 237], the TLR7-wt_LEC is reported as 0.156. In the case of `CCC[C@@H](CCO)Nc1nc(N)ncc1OCCCc1ccc2c(c1)OCO2` [Compound 238], the TLR7-wt_LEC is reported as 0.234. `CCC[C@@H](CO)Nc1nc(N)ncc1OCc1ccccn1` [Compound 239] gave a TLR7-wt_LEC of 0.464. For `CCCC[C@@H](CCO)Nc1nc(N)ncc1OCc1nn(C)c2ccccc12` [Compound 240], the TLR7-wt_LEC was 0.008. `CCCC[C@@H](CCO)Nc1nc(N)ncc1OCc1ncccc1OC` [Compound 241] was tested, and the TLR7-wt_LEC was 0.008. `CCCC[C@@H](CCO)Nc1nc(N)ncc1OCc1ncc(C)c(O)c1C` [Compound 242] gave a TLR7-wt_LEC of 5.400. Molecule `CCCC[C@@H](CO)Nc1nc(N)ncc1OCc1ccccn1` [Compound 243] has a TLR7-wt_LEC of 0.343. `CCCC[C@@H](CCO)Nc1nc(N)ncc1OCCCc1ccc2c(c1)OCO2` [Compound 244] gave a TLR7-wt_LEC of 0.202. Work on `CCCC[C@@H](CCO)Nc1nc(N)ncc1OCc1nccc(OC)c1OC` [Compound 245] yielded a TLR7-wt_LEC of 0.040. With `CCC[C@@H](CCO)Nc1nc(N)ncc1OCc1cc(C)n(C)n1` [Compound 246] the TLR7-wt_LEC was 0.157.

These molecules were tested on human TLR7 mutant sequence comprising a deletion in the second leucine-rich repeat (assay: TLR7 cellular NFκB-luc reporter assay, mutant TLR7 with deletion in the second leucine-rich repeat). Details: lowest effective concentration.
Type: cell-based
Parameters: unit not given here
Procedure: as §1, §2
`CCCC[C@@H](CCO)Nc1nc(N)ncc1OCCCc1ccc(OC)cc1` [Compound 225] showed a TLR7-dIRR2_LEC of 2.180. Work on `CCC[C@@H](CCO)Nc1nc(N)ncc1OCCCc1ccc(OC)cc1` [Compound 226] yielded a TLR7-dIRR2_LEC of 1.050. `CCC[C@@H](CCO)Nc1nc(N)ncc1OCc1cccc(C)n1` [Compound 227] was tested, and the TLR7-dIRR2_LEC was 0.717. `CCCC[C@@H](CO)Nc1nc(N)ncc1OCCCc1ccc2c(c1)OCO2` [Compound 228] showed a TLR7-dIRR2_LEC of 1.510. For `CCCCNc1nc(N)ncc1OCCN(Cc1ccccc1)C(=O)OCC` [Compound 230], the TLR7-dIRR2_LEC was 3.470. `CCC[C@@H](CCO)Nc1nc(N)ncc1OCc1nccc2ccccc12` [Compound 231] gave a TLR7-dIRR2_LEC of 0.052. `CCCCNc1nc(N)ncc1OCCNC(=O)OCC` [Compound 232] was tested, and the TLR7-dIRR2_LEC was 1.680. Work on `CCCCNc1nc(N)ncc1OCCOC(C)C` [Compound 234] yielded a TLR7-dIRR2_LEC of 1.170. `CCCCNc1nc(N)ncc1OCC1CCOC1` (stereo not drawn) [Compound 235] gave a TLR7-dIRR2_LEC of 10.410. `CCCCNc1nc(N)ncc1OCc1ccc2cccnc2n1` [Compound 236] was tested, and the TLR7-dIRR2_LEC was 0.333. For `CCCC[C@@H](CCO)Nc1nc(N)ncc1OCc1cc(C)n(C)n1` [Compound 237], the TLR7-dIRR2_LEC was 1.830. `CCC[C@@H](CCO)Nc1nc(N)ncc1OCCCc1ccc2c(c1)OCO2` [Compound 238] gave a TLR7-dIRR2_LEC of 1.920. Molecule `CCC[C@@H](CO)Nc1nc(N)ncc1OCc1ccccn1` [Compound 239] has a TLR7-dIRR2_LEC of 0.247. In the case of `CCCC[C@@H](CCO)Nc1nc(N)ncc1OCc1nn(C)c2ccccc12` [Compound 240], the TLR7-dIRR2_LEC is reported as 0.442. In the case of `CCCC[C@@H](CCO)Nc1nc(N)ncc1OCc1ncccc1OC` [Compound 241], the TLR7-dIRR2_LEC is reported as 0.304. In the case of `CCCC[C@@H](CCO)Nc1nc(N)ncc1OCc1ncc(C)c(O)c1C` [Compound 242], the TLR7-dIRR2_LEC is reported as 3.010. Molecule `CCCC[C@@H](CO)Nc1nc(N)ncc1OCc1ccccn1` [Compound 243] has a TLR7-dIRR2_LEC of 0.103. `CCCC[C@@H](CCO)Nc1nc(N)ncc1OCCCc1ccc2c(c1)OCO2` [Compound 244] showed a TLR7-dIRR2_LEC of 1.400. In the case of `CCCC[C@@H](CCO)Nc1nc(N)ncc1OCc1nccc(OC)c1OC` [Compound 245], the TLR7-dIRR2_LEC is reported as 0.507. `CCC[C@@H](CCO)Nc1nc(N)ncc1OCc1cc(C)n(C)n1` [Compound 246] showed a TLR7-dIRR2_LEC of 1.150.
